# From the NIST ThermoML archive (doi:10.1021/je0342421)
# Numbers after ± are expanded uncertainties.
# Conditions: Liquid
smiles,measurement,setting,value
CCOC(C)(C)C [2-ethoxy-2-methylpropane],vapor or sublimation pressure,312.49 K,31.7 ± 0.7 kPa
same,vapor or sublimation pressure,318.55 K,40.2 ± 0.7 kPa
same,vapor or sublimation pressure,323.25 K,47.2 ± 0.8 kPa
same,vapor or sublimation pressure,325.18 K,51.4 ± 0.8 kPa
same,vapor or sublimation pressure,326.6 K,54.1 ± 0.8 kPa
same,vapor or sublimation pressure,329.02 K,59 ± 0.8 kPa
same,vapor or sublimation pressure,331.96 K,65.3 ± 0.9 kPa
same,vapor or sublimation pressure,333.28 K,67.4 ± 0.9 kPa
same,vapor or sublimation pressure,335.92 K,74.8 ± 0.9 kPa
same,vapor or sublimation pressure,338.08 K,80.5 ± 0.9 kPa
same,vapor or sublimation pressure,340.01 K,85.8 ± 1 kPa
same,vapor or sublimation pressure,341.49 K,90.1 ± 1 kPa
same,vapor or sublimation pressure,342.88 K,94.3 ± 1 kPa
same,vapor or sublimation pressure,343.86 K,97 ± 1 kPa
same,vapor or sublimation pressure,345.77 K,102.8 ± 1.1 kPa
